From article PMC8560896 (Frontiers in Chemistry, 2021)
Entries after “also recorded” stand apart in the source; their conditions may differ.

Assays:
SH-SY5Y cells [1] = assay: ROS measurement (H2DCF-DA, flow cytometry) after H2O2 insult; format: cell-based, human; conditions: for ROS measurement 250 nM / ROS measurement 500 nM / ROS measurement 1 μM / ROS measurement 10 μM: fluorescence relative to control = 1, H2O2 (100 μM) alone 6.31, 24 h + 3 h; for ROS measurement 250 nM: hybrid 250 nM; for ROS measurement 500 nM: hybrid 500 nM; for ROS measurement 1 μM: hybrid 1 μM; for ROS measurement 10 μM: hybrid 10 μM
Description: H2DCF-DA is a molecule that easily diffuses into cells and, through intracellular esterases, is split into H2DCF following the loss of the acetate group. H2DCF remains trapped within cells and is oxidized by intracellular ROS to form the highly fluorescent DCF compound. Spectrofluorimetric quantification of the DCF probe, provides the content of the ROS in the cell.
[…]. Subsequently, the growth medium was replaced with a fresh phenol red-free medium containing H2DCF-DA (25 μM). After 30 min at 37°C, the cells were washed twice to remove the extracellular H2DCF-DA, centrifuged, re-suspended in PBS, exposed to H2O2 (100 μM, 30 min) and the fluorescence was evaluated by flow cytometric analysis using a FACS Accury laser flow cytometer (Becton Dickinson). The results were expressed by setting the control equal to 1 and reporting all other values. H2O2 alone was used as a positive control.

SH-SY5Y cells [2] = assay: MTT cell viability after H2O2 damage (neuroprotection); format: cell-based, human; conditions: hybrids 21 h, then H2O2 100 μM 3 h; vs hydrogen peroxide alone
SH-SY5Y cells [3] = assay: MTT cell viability assay; format: cell-based, human; conditions: for Effect on cell viability: 0.25–100 μM, 24 h; for IC50: Homo sapiens, neurotoxic concentration, SH-SY5Y
Source text: The MTT test is based on the observation that live cells can reduce the water-soluble yellow tetrazolium salt [3-(4,5-dimethylthiazol-2-yl)-2,5-diphenyltetrazolium bromide] into water-insoluble blue/magenta formazan crystals, by dehydrogenase of the active mitochondria. Dissolved formazan crystals can be quantified using a spectrophotometer and the values obtained are in direct correlation to the number of metabolically active cells. For this reason, this colorimetric assay is used to evaluate cell viability.
The MTT assay was performed as reported in literature ([Corasaniti et al., 2007]). […].
The optical density was measured at wavelengths of 540 and 690 nm using a spectrophotometer (X MARK Spectrophotometer Microplate Bio-Rad).

[4] = Cupric ion reducing antioxidant capacity (CUPRAC); conditions: for TEAC: Supplementary Table 1, ε of compound divided by ε of Trolox; for CUPRAC: Trolox equivalent, 2% M-β-CD, A450 after 40 min
Description: The CUPRAC test was performed as reported by [Ozyürek et al. (2008)] on the new compounds in the unacetylated form.
CuCl2 solution 10 mM, was prepared by dissolving […] CuCl2 in water, and diluting to 250 ml. Neocuproine (Nc) solution 7.5 mM, was prepared by dissolving 15 mg of neocuproine in 10 ml of absolute EtOH. Ammonium acetate 1.0 M was prepared by dissolving 19.27 g of NH4Ac in 250 ml of water. The cyclodextrin (2% M-β-CD) stock solution was prepared in water-acetone (9:1 v/v). The standard solution of Trolox 1 mM was prepared in 2% M-β-CD. All working solutions of antioxidant 1 mM were freshly prepared in 2% M-β-CD.
1 ml of Cu(II) + 1 ml of Nc + 1 ml of NH4Ac buffer + x mL of antioxidant solution + (1.1 − x) 2% M-β-CD in 1:9 water–acetone mixture (v/v); total volume = 4.1 ml, measure A 450 against a reagent blank after 40 min of reagent addition at room temperature.
The Trolox equivalent antioxidant capacity (TEAC) is defined as the millimolar concentration of a Trolox solution having the antioxidant capacity equivalent to a 1.0 mM solution of the substance under investigation. The […] values were simply calculated by dividing the molar absorptivity ε of the species under investigation by that of Trolox under corresponding conditions. The concentration linearity ranges for all the antioxidants tested are reported in the Supplementary Material (See Supplementary Table S1).

[5] = Oxygen radical absorbance capacity (ORAC) by fluorescence; conditions: for ORAC: means ± SEM of three independent observations, sample 10 μM in 7% RMCD solution
Description: The measurement temperature was set at 37°C. A regression equation was built by comparing the net area under the FL decay curve and the Trolox concentration according to the following equation: Y(µM Trolox)=a+bX(AUC−n) and the final ORACFL values were expressed as Trolox equivalents (μmol g^−1).

[6] = Metal-chelating properties by UV-vis spectroscopy; conditions: compound 75 μM with CuSO4, FeSO4, FeCl3 or ZnCl2 150 μM in MeOH, 30 min
Description: The complexing studies for all the unprotected hybrids were carried out through a UV–vis spectroscopy assay with the wavelength ranging from 200 to 400 nm. The unprotected hybrids were dissolved in a 5% DMSO methanolic solution (3 mM). This solution was diluted with methanol to 150 µM. 2 ml of the 150 µM solution were mixed with 2 ml of methanol to record the spectra of the hybrids alone, or with 2 ml of the salts solution (300 µM). Then, the absorption spectra of the antioxidants (75 μM) alone or in the presence of CuSO4, FeSO4, FeCl3 or ZnCl2 (150 μM) mixed for 30 min in methanol at room temperature were recorded in a 1 cm quartz cell.

| Structure (SMILES) | ROS measurement 250 nM (SH-SY5Y cells [1]) | ROS measurement 500 nM (SH-SY5Y cells [1]) | ROS measurement 1 μM (SH-SY5Y cells [1]) | ROS measurement 10 μM (SH-SY5Y cells [1]) | Protective effect on cell viability against H2O2 damage (SH-SY5Y cells [2]) | Effect on cell viability (SH-SY5Y cells [3]) | IC50 (SH-SY5Y cells [3]) | Reduction of ROS amount (in words) (SH-SY5Y cells [1]; H2O2 100 μM as toxic insult) | TEAC [4] | CUPRAC [4] | Reduction of ORAC antioxidant capacity compared to HT1 [5] | ORAC [5] | Metal chelating activity [6] |
| --- | --- | --- | --- | --- | --- | --- | --- | --- | --- | --- | --- | --- | --- |
| CC(=O)Oc1ccc(CCOC(=O)C2CCN(Cc3ccccc3)CC2)cc1 [HT4a] | 2.34 | 2.77 | 2.94 | 3.01 | statistically significant increase in cell viability | reduction in cell viability was found for compounds HT3a and HT4a at concentrations higher than 10 μM | > 10 µM |  |  |  |  |  |  |
| O=C(OCCc1cc(O)c(O)cc1[N+](=O)[O-])C1CCN(Cc2ccccc2)CC1 [HT2] | 2.21 | 1.97 | 1.12 | 1.38 | statistically significant increase in cell viability; also recorded: able to attenuate cell injury against oxidative stress |  | > 50 µM | the more effective one to reduce the ROS amount to the physiological values | 2,77 | 2.77 (mmol of trolox)/(mmol of tested compound) | ~3 times | 7.6 ± 0.2 µmol trolox l^−1 | chelates all the metal cations; also recorded: showed metal chelating properties |
| OCCc1ccc(O)c(O)c1 [HT, hydroxytyrosol, reference compound] |  |  |  |  |  |  |  |  | 2,82 | 2.82 (mmol of trolox)/(mmol of tested compound) |  | 38.8 ± 4.4 µmol trolox l^−1 |  |
| COc1cc(CCOC(=O)C2CCN(Cc3ccccc3)CC2)ccc1O [HT3] | 3.68 | 2.91 | 2.18 | 2.76 |  |  | > 25 µM |  | 1,80 | 1.80 (mmol of trolox)/(mmol of tested compound) |  | 45.2 ± 3.6 µmol trolox l^−1 |  |
| CC(=O)Oc1ccc(CCOC(=O)C2CCN(Cc3ccccc3)CC2)cc1OC(C)=O [HT1a] | 2.99 | 2.63 | 2.51 | 2.66 |  |  | > 50 µM |  |  |  |  |  |  |
| Cc1c(C)c2c(c(C)c1O)CCC(C)(C(=O)O)O2 (stereo not shown) [Trolox, reference compound] |  |  |  |  |  |  |  |  | 1 | 1 (mmol of trolox)/(mmol of tested compound) |  |  |  |
| O=C(OCCc1ccc(O)cc1)C1CCN(Cc2ccccc2)CC1 [HT4] | 3.9 | 3.2 | 3.64 | 3.67 |  |  | > 25 µM |  | 0,99 | 0.99 (mmol of trolox)/(mmol of tested compound) |  | 23.0 ± 2.0 µmol trolox l^−1 |  |
| COc1cc(CCOC(=O)C2CCN(Cc3ccccc3)CC2)ccc1OC(C)=O [HT3a] | 2.27 | 1.94 | 1.58 | 2.13 | statistically significant increase in cell viability; also recorded: able to attenuate cell injury against oxidative stress | reduction in cell viability was found for compounds HT3a and HT4a at concentrations higher than 10 μM | > 10 µM |  |  |  |  |  |  |
| O=C(OCCc1ccc(O)c(O)c1)C1CCN(Cc2ccccc2)CC1 [HT1] | 6.18 | 5.25 | 5.47 | 5.49 |  |  | 50 µM |  | 3,36 | 3.36 (mmol of trolox)/(mmol of tested compound) |  | 21.2 ± 1.6 µmol trolox l^−1 | able to chelate only Copper (II) efficiently; also recorded: showed metal chelating properties |
